Reference: patent US11401256B2, “Dihydroquinolinones for medical treatment” (C4 Therapeutics, Inc., priority 2017, dated 2022)

Molecular target: h-Cereblon_DDB1 (hCereblon(M1-L442)_hDDB1(M1-H1140)) (Homo sapiens (Human), UniProt Q96SW2)
Assay: Fluorescence direct binding (tryptophan fluorescence titration)
Conditions: 20° C., excitation 280 nm, emission 340 nm, 1:1 protein-ligand complex; read-out: Fluorescence h-Cereblon_DDB1 Mean Kd_EQ
Method: Determination of the affinities of compounds to protein containing one or more tryptophan is measurable by monitoring the fluorescence emission in direct mode. The measurements depending on the protein available amounts are performed either manually in a cuvette on ISS-PC1 photon counting spectrofluorometer or automatically in well plates on a fluorescence plate reader device. Fluorescence titrations are performed at 20° C. in the chosen binding assay buffer by using a defined constant protein concentration against ligand concentration variations. Small aliquots of known ligand concentration solubilized in DMSO were added and the fluorescence, excited at 280 nm, was recorded at 340 nm. The fluorescence intensity was corrected for protein dilution and for the filter effect (Birdsall et al.^37). The corrected fluorescence intensity was plotted against the ligand concentration and fitted using a four-parameter sigmoidal function, from which the equilibrium dissociation constant Kd was computed using the law of mass action assuming a 1:1 protein-ligand complex (Eftink, 1997^38).
Process • 1) Optimization of measurement parameters to minimize protein consumption and to minimize the dilution effect and the DMSO content • 2) Titration measurements of the protein against ligand by at least 12 titration steps to obtain a good s-curve fit • 3) Repeat the same titration measurements with the ligand alone to enable correction • 4) Check the stability of the protein once by titration against DMSO alone • 5) Determination of the molar extinction coefficients of the ligand at 280 and 340 nm with help of a UV-spectrophotometer • 6) Use Excel template for the correction of the measured raw data • 7) Use GraphPad Prism software for the quadratic binding fit and the Kd evaluation.

Sequence of h-Cereblon_DDB1 (hCereblon(M1-L442)_hDDB1(M1-H1140)) (Q96SW2 whole entry): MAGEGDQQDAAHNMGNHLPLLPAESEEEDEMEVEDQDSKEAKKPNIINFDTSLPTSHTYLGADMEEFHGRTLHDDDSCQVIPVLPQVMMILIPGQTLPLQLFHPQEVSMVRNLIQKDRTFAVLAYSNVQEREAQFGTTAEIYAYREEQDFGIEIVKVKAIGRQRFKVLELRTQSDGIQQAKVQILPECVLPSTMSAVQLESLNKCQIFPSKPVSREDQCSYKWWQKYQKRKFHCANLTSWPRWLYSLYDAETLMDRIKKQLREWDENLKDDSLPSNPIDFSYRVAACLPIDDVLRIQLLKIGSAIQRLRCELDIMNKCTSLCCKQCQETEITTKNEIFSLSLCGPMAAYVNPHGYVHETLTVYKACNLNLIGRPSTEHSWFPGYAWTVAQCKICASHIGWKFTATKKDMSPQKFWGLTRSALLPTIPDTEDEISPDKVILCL
Sequence of h-Cereblon_DDB1 (hCereblon(M1-L442)_hDDB1(M1-H1140)) (Q16531 whole entry partner): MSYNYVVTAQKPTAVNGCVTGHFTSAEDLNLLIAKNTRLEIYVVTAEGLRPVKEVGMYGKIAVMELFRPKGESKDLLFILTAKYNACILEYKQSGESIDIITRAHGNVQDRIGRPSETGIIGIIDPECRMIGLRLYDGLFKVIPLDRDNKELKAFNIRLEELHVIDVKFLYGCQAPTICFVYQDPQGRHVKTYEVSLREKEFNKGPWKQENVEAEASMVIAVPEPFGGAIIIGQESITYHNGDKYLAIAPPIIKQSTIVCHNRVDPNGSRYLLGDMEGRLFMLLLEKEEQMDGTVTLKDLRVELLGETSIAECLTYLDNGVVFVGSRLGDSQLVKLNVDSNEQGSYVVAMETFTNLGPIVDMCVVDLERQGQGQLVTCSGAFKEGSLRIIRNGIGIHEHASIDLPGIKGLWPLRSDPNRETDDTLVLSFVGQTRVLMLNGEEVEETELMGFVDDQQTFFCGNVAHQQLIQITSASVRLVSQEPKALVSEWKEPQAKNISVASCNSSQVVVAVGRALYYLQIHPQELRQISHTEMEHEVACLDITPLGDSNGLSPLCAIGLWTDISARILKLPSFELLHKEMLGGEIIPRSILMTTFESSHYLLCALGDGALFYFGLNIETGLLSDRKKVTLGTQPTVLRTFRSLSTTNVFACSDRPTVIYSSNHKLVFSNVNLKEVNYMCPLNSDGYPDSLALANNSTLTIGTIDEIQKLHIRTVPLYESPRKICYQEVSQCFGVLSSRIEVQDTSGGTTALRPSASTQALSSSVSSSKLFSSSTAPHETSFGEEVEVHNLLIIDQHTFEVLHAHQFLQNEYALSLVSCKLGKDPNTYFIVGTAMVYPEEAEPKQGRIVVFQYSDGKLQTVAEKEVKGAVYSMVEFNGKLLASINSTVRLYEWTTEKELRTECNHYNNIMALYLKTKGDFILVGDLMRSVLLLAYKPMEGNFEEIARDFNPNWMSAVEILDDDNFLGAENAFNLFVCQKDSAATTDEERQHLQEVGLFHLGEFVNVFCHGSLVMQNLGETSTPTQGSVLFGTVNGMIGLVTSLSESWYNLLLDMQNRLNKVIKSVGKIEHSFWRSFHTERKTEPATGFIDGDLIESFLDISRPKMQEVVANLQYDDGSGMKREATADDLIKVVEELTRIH

| SMILES | Kd [nM] |
| --- | --- |
| O=C1CCc2cc(C(=O)N3CCc4ccccc43)cnc2N1 [Example 58, 6-(Indoline-1-carbonyl)-3,4-dihydro-1H-1,8-naphthyridin-2-one] | 62 |
| COC(=O)c1ccc(Nc2ccc3c(c2)CCC(=O)N3)cc1 [Example 19, Methyl 4-((2-oxo-1,2,3,4-tetrahydroquinolin-6-yl)amino)benzoate] | 30 |
| CNC(=O)c1ccc2c(c1)nc(-c1cc(-c3cncn3C)nc3ccccc13)n2-c1ccc2c(c1)CCC(=O)N2 [Example 2, N-Methyl-2-[2-(3-methylimidazol-4-yl)-4-quinolyl]-1-(2-oxo-3,4-dihydro-1H-quinolin-6-yl)benzimidazole-5-carboxamide] | 40 |
| CNC(=O)c1ccc2c(c1)nc(-c1cc(OC)ccc1C)n2-c1ccc2c(c1)CCC(=O)N2 [Example 33, 2-(5-Methoxy-2-methyl-phenyl)-N-methyl-1-(2-oxo-3,4-dihydro-1H-quinolin-6-yl)benzimidazole-5-carboxamide] | 45 |
| O=C1CCc2cc(C(=O)N3CCCc4ccccc43)cnc2N1 [Example 60, 6-(3,4-Dihydro-2H-quinoline-1-carbonyl)-3,4-dihydro-1H-1,8-naphthyridin-2-one] | 1 |
| O=C1CCc2cc(-n3ccnc3)cnc2N1 [Example 9, 6-(1H-Imidazol-1-yl)-3,4-dihydro-1,8-naphthyridin-2(1H)-one] | 16 |
| CNC(=O)c1ccc2c(c1)nc(-c1cccc(OC)n1)n2-c1ccc2c(c1)CCC(=O)N2 [Example 23, 2-(6-Methoxypyridin-2-yl)-N-methyl-1-(2-oxo-1,2,3,4-tetrahydroquinolin-6-yl)-1H-benzo[d]imidazole-5-carboxamide] | 15 |
| Cc1sc2c(c1C)C(c1ccc(Cl)cc1)=N[C@@H](CC(=O)NCCOCCOCCNC(=O)c1ccc3c(c1)nc(-c1cc(-c4cncn4C)nc4ccccc14)n3-c1ccc3c(c1)CCC(=O)N3)c1nnc(C)n1-2 [Example C, N-(2-(2-(2-(2-((6S)-4-(4-Chlorophenyl)-2,3,9-trimethyl-6H-thieno[3,2-f][1,2,4]triazolo[4,3-a][1,4]diazepin-6-yl)acetamido)ethoxy)ethoxy)ethyl)-2-(2-(1-methyl-1H-imidazol-5-yl)quinolin-4-yl)-1-(2-oxo-1,2,3,4-tetrahydroquinolin-6-yl)-1H-benzo[d]imidazole-5-carboxamide] | 524 |
| CC(=O)N1CCC(NC(=O)c2ccc3c(c2)CCC(=O)N3)CC1 [Example 57, N-(1-Acetyl-4-piperidyl)-2-oxo-3,4-dihydro-1H-quinoline-6-carboxamide] | 41 |
| COC(=O)c1ccc2c(c1)nc(-c1ccnc(OC)c1)n2-c1ccc2c(c1)CCC(=O)N2 [Example 22, Methyl 2-(2-methoxypyridin-4-yl)-1-(2-oxo-1,2,3,4-tetrahydroquinolin-6-yl)-1H-benzo[d]imidazole-5-carboxylate] | 4 |
| Cc1sc2c(c1C)C(c1ccc(Cl)cc1)=N[C@@H](CC(=O)NCCCCCCCCCCNC(=O)c1ccc3c(c1)nc(-c1cc(-c4cncn4C)nc4ccccc14)n3-c1ccc3c(c1)CCC(=O)N3)c1nnc(C)n1-2 [Example A, N-(10-(2-((6S)-4-(4-Chlorophenyl)-2,3,9-trimethyl-6H-thieno[3,2-f][1,2,4]triazolo[4,3-a][1,4]diazepin-6-yl)acetamido)decyl)-2-(2-(1-methyl-1H-imidazol-5-yl)quinolin-4-yl)-1-(2-oxo-1,2,3,4-tetrahydroquinolin-6-yl)-1H-benzo[d]imidazole-5-carboxamide] | 338 |
| O=C1CCc2cc(C(=O)N3CCc4cccnc43)cnc2N1 [Example 59, 6-(2,3-Dihydropyrrolo[2,3-b]pyridine-1-carbonyl)-3,4-dihydro-1H-1,8-naphthyridin-2-one] | 3 |
| O=C1CCc2cc(C(=O)N3CCc4cccnc43)ccc2N1 [Example 55, 6-(2,3-Dihydropyrrolo[2,3-b]pyridine-1-carbonyl)-3,4-dihydro-1H-quinolin-2-one] | 23 |
| CNC(=O)c1ccc2c(c1)nc(-c1ccnc(OC)c1)n2-c1cnc2c(c1)CCC(=O)N2 [Example 29, 2-(2-Methoxy-4-pyridyl)-N-methyl-1-(7-oxo-6,8-dihydro-5H-1,8-naphthyridin-3-yl)benzimidazole-5-carboxamide] | 35 |
| CNC(=O)c1ccc2c(c1)nc(Cc1ccc(C(F)(F)F)cc1OC)n2-c1ccc2c(c1)CCC(=O)N2 [Example 47, 2-[[2-Methoxy-4-(trifluoromethyl)phenyl]methyl]-N-methyl-1-(2-oxo-3,4-dihydro-1H-quinolin-6-yl)benzimidazole-5-carboxamide] | 17 |
| O=C1CCc2ccc(-n3ccnc3)cc2N1 [Example 53, 7-(1H-Imidazol-1-yl)-3,4-dihydroquinolin-2(1H)-one] | 16 |
| CNC(=O)c1ccc2c(c1)nc(CO)n2-c1ccc2c(c1)CCC(=O)N2 [Example 15, 2-(Hydroxymethyl)-N-methyl-1-(2-oxo-1,2,3,4-tetrahydroquinolin-6-yl)-1H-benzo[d]imidazole-5-carboxamide] | 11 |
| CC(C)c1nc2ccccc2n1-c1ccc2c(c1)CNC(=O)N2 [Example 61, 6-(2-Isopropyl-1H-benzo[d]imidazol-1-yl)-3,4-dihydroquinazolin-2(1H)-one] | 171 |
| CNC(=O)c1ccc2c(c1)nc(C(C)C)n2-c1ccc2c(c1)CNC(=O)N2 [Example 62, 2-Isopropyl-N-methyl-1-(2-oxo-1,2,3,4-tetrahydroquinazolin-6-yl)-1H-benzo[d]imidazole-5-carboxamide] | 120 |
| Cc1sc2c(c1C)C(c1ccc(Cl)cc1)=N[C@@H](CC(=O)NCCCCCNC(=O)c1ccc3c(c1)nc(-c1cc(-c4cncn4C)nc4ccccc14)n3-c1ccc3c(c1)CCC(=O)N3)c1nnc(C)n1-2 [Example B, N-(5-(2-((6S)-4-(4-Chlorophenyl)-2,3,9-trimethyl-6H-thieno[3,2-f][1,2,4]triazolo[4,3-a][1,4]diazepin-6-yl)acetamido)pentyl)-2-(2-(1-methyl-1H-imidazol-5-yl)quinolin-4-yl)-1-(2-oxo-1,2,3,4-tetrahydroquinolin-6-yl)-1H-benzo[d]imidazole-5-carboxamide] | 258 |
| CNC(=O)c1ccc2c(c1)nc(-c1ccc(OC)nc1)n2-c1ccc2c(c1)CCC(=O)N2 [Example 24, 2-(6-Methoxypyridin-3-yl)-N-methyl-1-(2-oxo-1,2,3,4-tetrahydroquinolin-6-yl)-1H-benzo[d]imidazole-5-carboxamide] | 12 |
| CNC(=O)c1ccc2c(c1)nc(-c1cc(OC)ccc1F)n2-c1ccc2c(c1)CCC(=O)N2 [Example 35, 2-(2-Fluoro-5-methoxy-phenyl)-N-methyl-1-(2-oxo-3,4-dihydro-1H-quinolin-6-yl)benzimidazole-5-carboxamide] | 14 |
| O=C1CCc2cc(NC(=O)C3CCCc4ccccc43)cnc2N1 (racemic) [Example 21, (RS)—N-(7-Oxo-5,6,7,8-tetrahydro-1,8-naphthyridin-3-yl)-1,2,3,4-tetrahydronaphthalene-1-carboxamide] | 4 |
| CNC(=O)c1ccc2c(c1)nc(-c1cc(OC)ncc1F)n2-c1ccc2c(c1)CCC(=O)N2 [Example 44, 2-(5-Fluoro-2-methoxy-4-pyridyl)-N-methyl-1-(2-oxo-3,4-dihydro-1H-quinolin-6-yl)benzimidazole-5-carboxamide] | 10 |
| Cn1cncc1-c1cc(C(=O)Nc2ccc3c(c2)CCC(=O)N3)c2ccccc2n1 [Example 5] | 677 |
